Test results as given in PubChem BioAssay AID2060486 (Molecular Pharmacology Branch, DTP, NCI, 2025).

Tested on: IGROV1 complex spheroids (HUVEC, MSC), viability % test/control
Test: Anticancer human tumor IGROV1 cell line growth inhibition [GQUAD];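 further: spheroids exposed to compounds for 7 days before readout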
Conditions: for IC50: curve of first compound; for viability, T/C: stronger effect = lower value
Excerpt: DNA G-quadruplex Stabilizer Agents in Combinations in Complex Spheroids
A high-throughput screen of multi-cell type tumor spheroids was designed to identify active combinations of DNA G-quadruplex stabilizer agents and targeted small molecules. Complex spheroids include a stromal component modeled by human endothelial cells (HUVEC) and fibroblasts modeled by human mesenchymal stem cells (MSCs). The concentration ranges selected for each drug and investigational agent were based upon clinically achievable concentrations if the clinical Cmax of the agent was known.
Compounds. The drugs and investigational agents: pidnarulex (CX-5461; NSC782164), APTO-253 (NSC789042), BRACO-19 (NSC847499), peposertib (NSC802822), ceralasertib (NSC780249), elimusertib (NSC800525), camonsertib (NSC841442), AZD-1390 (NSC803789), olaparib (NSC753686), talazoparib (NSC767125), ART-558 (NSC835418), sotorasib (NSC818433), MRTX-1133 (NSC836407), SN-38 (NSC673596), topotecan (NSC609699), etoposide (NSC141540), doxorubicin (NSC123127), gemcitabine (NSC613327), 5-fluorouracil (NSC19893), paclitaxel (NSC125973), vemurafenib (NSC761431), panobinostat (NSC761190), R-306465 (JNJ-16241199; NSC773264), adavosertib (NSC754352), TP-3654 (NSC805149), carboplatin (NSC241240), KSQ-4279 (NSC840948), and staurosporine (NSC755774) were obtained from the National Cancer Institute (NCI) Developmental Therapeutics Program Chemical Repository (34). The FDA-approved anticancer drug set is available from the NCI Developmental Therapeutics Program. […] The stock solutions were prepared in dimethyl sulfoxide (DMSO, Sigma-Aldrich, St. Louis, MO, cat. D2650) at 800-fold the tested concentration and stored at -70 degrees C prior to their use. All drugs and investigational agents were tested over a range starting from a high concentration at or near the clinical Cmax and decreasing in half-log increments. If the clinical Cmax for an agent had not been determined, the highest concentration tested was 10 microM.
2.3 Cell Culture. All cells were maintained in an incubator at 37 degrees C and 5% CO2 with 95% humidity. The PDC lines were cultured according to standard operating procedures established by the NCI PDMR. All PDCs were thawed and cultured in Matrigel-coated flasks prepared with a working solution of 1X Ham's F-12 nutrient mix, without supplementation (Invitrogen, cat. 11765054), 100 U/mL penicillin-streptomycin (Invitrogen, cat. 15140122), and 2.5% Matrigel (Corning Inc., cat. 354248) for the first three passages. The 857933-349-R-J2-PDC line was cultured in 6C/Colon 1B media, which includes advanced DMEM/F-12 (Thermo Fisher Scientific, cat. 12634028), 10 mM HEPES (Thermo Fisher Scientific, cat. 15630080), 1X GlutaMAX supplement (Thermo Fisher Scientific, cat. 35050061), 0.1 mg/mL primocin (InvivoGen, cat. ant-pm-2), 10% defined fetal bovine serum, heat inactivated (HyClone Laboratories Inc., cat. SH30070.03HI), 50% L-WRN conditioned media (ATCC, cat. CRL-3276), 1.25 mM N-Acetyl-L-cysteine (Sigma-Aldrich, cat. A9165), 10 mM nicotinamide (Sigma-Aldrich, cat. N0636), 1X B-27 supplement (Thermo Fisher Scientific, cat. 17504044), 1X N-2 supplement (Thermo Fisher Scientific, cat. 17502048), 10 microM Y-27632 dihydrochloride (Tocris Bioscience, cat. 1254), and 50 ng/mL human EGF recombinant protein (Thermo Fisher Scientific, cat. PHG0311). The 485176-168-R4-J1-PDC line was cultured in Panc media, which includes all 6C/Colon 1B media components plus 100 ng/mL human FGF-10 (Thermo Fisher Scientific, cat. 100-26), 500 nM SB-431542 (Selleckchem, cat. S1067), and gastrin (Tocris, cat. 3006).
[…]

[1] = second compound 0.0316 µM, first compound 0.0316 µM
[2] = second compound 0.0316 µM, first compound 0.316 µM
[3] = second compound 0.1 µM, first compound 0.0316 µM
[4] = second compound 0.1 µM, first compound 0.316 µM
[5] = second compound 0.316 µM, first compound 0.0316 µM
[6] = second compound 0.316 µM, first compound 0.316 µM
[7] = second compound 1 µM, first compound 0.0316 µM
[8] = second compound 1 µM, first compound 0.316 µM
[9] = second compound 3.16 µM, first compound 0.0316 µM
[10] = second compound 3.16 µM, first compound 0.316 µM
[11] = second compound 10 µM, first compound 0.0316 µM
[12] = second compound 10 µM, first compound 0.316 µM

SMILES: Cc1[nH]c2ccccc2c1CCNCc1ccc(/C=C/C(=O)NO)cc1 + Cc1[nH]c2ccc(F)cc2c1-c1nc2c3cccnc3c3ncccc3c2[nH]1
- IC50 (second compound 0.0316 µM): 22.8 nM
- IC50 (second compound 0.1 µM): 17.6 nM
- IC50 (second compound 0.316 µM): 10.6 nM
- IC50 (second compound 1 µM): < 0.999 nM
- IC50 (second compound 3.16 µM): < 0.999 nM
- IC50 (second compound 10 µM): < 0.999 nM
- viability, T/C (second compound 0.0316 µM, first compound 0.000999 µM): 107%
- viability, T/C (second compound 0.0316 µM, first compound 0.00316 µM): 88.2%
- viability, T/C (second compound 0.0316 µM, first compound 0.00999 µM): 80%
- viability, T/C [1]: 40.3%
- viability, T/C (second compound 0.0316 µM, first compound 0.0999 µM): 4.14%
- viability, T/C [2]: 0.24%
- viability, T/C (second compound 0.1 µM, first compound 0.000999 µM): 91.8%
- viability, T/C (second compound 0.1 µM, first compound 0.00316 µM): 102%
- viability, T/C (second compound 0.1 µM, first compound 0.00999 µM): 64.4%
- viability, T/C [3]: 32.3%
- viability, T/C (second compound 0.1 µM, first compound 0.0999 µM): 5.9%
- viability, T/C [4]: 0.36%
- viability, T/C (second compound 0.316 µM, first compound 0.000999 µM): 61.7%
- viability, T/C (second compound 0.316 µM, first compound 0.00316 µM): 67.6%
- viability, T/C (second compound 0.316 µM, first compound 0.00999 µM): 48.2%
- viability, T/C [5]: 28.6%
- viability, T/C (second compound 0.316 µM, first compound 0.0999 µM): 5.96%
- viability, T/C [6]: 0.21%
- viability, T/C (second compound 1 µM, first compound 0.000999 µM): 3.99%
- viability, T/C (second compound 1 µM, first compound 0.00316 µM): 3.36%
- viability, T/C (second compound 1 µM, first compound 0.00999 µM): 2.02%
- viability, T/C [7]: 2.26%
- viability, T/C (second compound 1 µM, first compound 0.0999 µM): 2.15%
- viability, T/C [8]: 0.14%
- viability, T/C (second compound 3.16 µM, first compound 0.000999 µM): 2.38%
- viability, T/C (second compound 3.16 µM, first compound 0.00316 µM): 2.86%
- viability, T/C (second compound 3.16 µM, first compound 0.00999 µM): 1.81%
- viability, T/C [9]: 1.14%
- viability, T/C (second compound 3.16 µM, first compound 0.0999 µM): 0.49%
- viability, T/C [10]: 0.09%
- viability, T/C (second compound 10 µM, first compound 0.000999 µM): 3.6%
- viability, T/C (second compound 10 µM, first compound 0.00316 µM): 3.82%
- viability, T/C (second compound 10 µM, first compound 0.00999 µM): 2.17%
- viability, T/C [11]: 1.25%
- viability, T/C (second compound 10 µM, first compound 0.0999 µM): 0.54%
- viability, T/C [12]: 0.17%

SMILES: O=C(NO)c1cnc(N2CCN(S(=O)(=O)c3ccc4ccccc4c3)CC2)nc1 + Cc1[nH]c2ccc(F)cc2c1-c1nc2c3cccnc3c3ncccc3c2[nH]1
- IC50 (second compound 0.0316 µM): 98.9 nM
- IC50 (second compound 0.1 µM): 96.2 nM
- IC50 (second compound 0.316 µM): 81.9 nM
- IC50 (second compound 1 µM): < 31.6 nM
- IC50 (second compound 3.16 µM): < 31.6 nM
- IC50 (second compound 10 µM): < 31.6 nM
- viability, T/C [1]: 87.3%
- viability, T/C (second compound 0.0316 µM, first compound 0.1 µM): 49.5%
- viability, T/C [2]: 12.1%
- viability, T/C (second compound 0.0316 µM, first compound 1 µM): 0.35%
- viability, T/C (second compound 0.0316 µM, first compound 3.16 µM): 0.04%
- viability, T/C (second compound 0.0316 µM, first compound 10 µM): 0.07%
- viability, T/C [3]: 91.5%
- viability, T/C (second compound 0.1 µM, first compound 0.1 µM): 47.7%
- viability, T/C [4]: 20.1%
- viability, T/C (second compound 0.1 µM, first compound 1 µM): 0.3%
- viability, T/C (second compound 0.1 µM, first compound 3.16 µM): 0.05%
- viability, T/C (second compound 0.1 µM, first compound 10 µM): 0.06%
- viability, T/C [5]: 91.3%
- viability, T/C (second compound 0.316 µM, first compound 0.1 µM): 40.6%
- viability, T/C [6]: 17.2%
- viability, T/C (second compound 0.316 µM, first compound 1 µM): 0.3%
- viability, T/C (second compound 0.316 µM, first compound 3.16 µM): 0.04%
- viability, T/C (second compound 0.316 µM, first compound 10 µM): 0.05%
- viability, T/C [7]: 2.48%
- viability, T/C (second compound 1 µM, first compound 0.1 µM): 1.93%
- viability, T/C [8]: 2.47%
- viability, T/C (second compound 1 µM, first compound 1 µM): 0.07%
- viability, T/C (second compound 1 µM, first compound 3.16 µM): 0.03%
- viability, T/C (second compound 1 µM, first compound 10 µM): 0.05%
- viability, T/C [9]: 1.55%
- viability, T/C (second compound 3.16 µM, first compound 0.1 µM): 1.3%
- viability, T/C [10]: 0.5%
- viability, T/C (second compound 3.16 µM, first compound 1 µM): 0.04%
- viability, T/C (second compound 3.16 µM, first compound 3.16 µM): 0.05%
- viability, T/C (second compound 3.16 µM, first compound 10 µM): 0.07%
- viability, T/C [11]: 1.75%
- viability, T/C (second compound 10 µM, first compound 0.1 µM): 1.33%
- viability, T/C [12]: 0.92%
- viability, T/C (second compound 10 µM, first compound 1 µM): 0.07%
- viability, T/C (second compound 10 µM, first compound 3.16 µM): 0.11%
- viability, T/C (second compound 10 µM, first compound 10 µM): 0.1%
